{"source": "ChEMBL document CHEMBL1201862", "about": "“PubChem BioAssay data set” (2004)", "assay_in_all_cases": "DTP human tumour cell line panel, 48 h", "key": {"KM12": {"tested_on": "KM12"}, "OVCAR-5": {"tested_on": "OVCAR-5"}, "SNB-19": {"tested_on": "SNB-19"}, "HL-60": {"tested_on": "HL-60"}, "SNB-75": {"tested_on": "SNB-75"}, "NCI-H522": {"tested_on": "NCI-H522"}, "CCRF-CEM": {"tested_on": "CCRF-CEM"}, "ACHN": {"tested_on": "ACHN"}, "SR": {"tested_on": "SR"}, "PC-3": {"tested_on": "PC-3"}, "EKVX": {"tested_on": "EKVX"}, "DU-145": {"tested_on": "DU-145"}, "HOP-92": {"tested_on": "HOP-92"}, "786-0": {"tested_on": "786-0"}, "XF498": {"tested_on": "XF498"}, "DLD-1": {"tested_on": "DLD-1"}, "OVCAR-8": {"tested_on": "OVCAR-8"}, "SF-295": {"tested_on": "SF-295"}, "MCF7": {"tested_on": "MCF7"}, "RXF 393": {"tested_on": "RXF 393"}, "SNB-78": {"tested_on": "SNB-78"}, "CAKI-1": {"tested_on": "CAKI-1"}, "A498": {"tested_on": "A498"}, "BT-549": {"tested_on": "BT-549"}, "NCI-H460": {"tested_on": "NCI-H460"}, "MDA-MB-231": {"tested_on": "MDA-MB-231"}, "UACC-257": {"tested_on": "UACC-257"}, "KM-20L2": {"tested_on": "KM-20L2"}, "SF-539": {"tested_on": "SF-539"}, "HCC 2998": {"tested_on": "HCC 2998"}, "MDA-MB-435": {"tested_on": "MDA-MB-435"}, "HT-29": {"tested_on": "HT-29"}, "SK-MEL-28": {"tested_on": "SK-MEL-28"}, "K562": {"tested_on": "K562"}, "NCI-H23": {"tested_on": "NCI-H23"}, "COLO 205": {"tested_on": "COLO 205"}, "OVCAR-4": {"tested_on": "OVCAR-4"}, "SN12C": {"tested_on": "SN12C"}, "LOX IMVI": {"tested_on": "LOX IMVI"}, "Malme-3M": {"tested_on": "Malme-3M"}, "MOLT-4": {"tested_on": "MOLT-4"}, "TK-10": {"tested_on": "TK-10"}, "M14": {"tested_on": "M14"}, "U-251": {"tested_on": "U-251"}, "UO-31": {"tested_on": "UO-31"}, "NCI-H226": {"tested_on": "NCI-H226"}, "A549": {"tested_on": "A549"}, "RPMI-8226": {"tested_on": "RPMI-8226"}, "SF-268": {"tested_on": "SF-268"}, "DMS-114": {"tested_on": "DMS-114"}, "UACC-62": {"tested_on": "UACC-62"}, "SK-MEL-5": {"tested_on": "SK-MEL-5"}, "HCT-15": {"tested_on": "HCT-15"}, "LXFL 529": {"tested_on": "LXFL 529"}, "DMS-273": {"tested_on": "DMS-273"}, "IGROV-1": {"tested_on": "IGROV-1"}, "HOP-18": {"tested_on": "HOP-18"}, "SW-620": {"tested_on": "SW-620"}, "HCT-116": {"tested_on": "HCT-116"}, "SK-OV-3": {"tested_on": "SK-OV-3"}, "SK-MEL-2": {"tested_on": "SK-MEL-2"}, "HOP-62": {"tested_on": "HOP-62"}}, "note": "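Assay format: 96-well plates, 48-hour exposure. GI50 marks 50% less growth.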 Activity calls are given as the source filed them. No stated cut-off is given here; in the data, active = GI50 up to about 1.1 µM and inactive = higher.", "data": [{"smiles": "CN1CC[C@@H](c2c(O)cc(O)c3c(=O)cc(-c4ccccc4Cl)oc23)[C@@H](O)C1", "values": [{"measurement": "GI50", "setting": "KM12", "result": "30.3 nM (active)"}, {"measurement": "GI50", "setting": "OVCAR-5", "result": "38.4 nM (active)"}, {"measurement": "GI50", "setting": "SNB-19", "result": "40.7 nM (active)"}, {"measurement": "GI50", "setting": "HL-60", "result": "21.1 nM (active)"}, {"measurement": "GI50", "setting": "SNB-75", "result": "25.1 nM (active)"}, {"measurement": "GI50", "setting": "NCI-H522", "result": "65.5 nM (active)"}, {"measurement": "GI50", "setting": "CCRF-CEM", "result": "46.8 nM (active)"}, {"measurement": "GI50", "setting": "ACHN", "result": "23.7 nM (active)"}, {"measurement": "GI50", "setting": "SR", "result": "26.3 nM (active)"}, {"measurement": "GI50", "setting": "PC-3", "result": "38.5 nM (active)"}, {"measurement": "GI50", "setting": "EKVX", "result": "88.5 nM (active)"}, {"measurement": "GI50", "setting": "DU-145", "result": "41.1 nM (active)"}, {"measurement": "GI50", "setting": "HOP-92", "result": "55.6 nM (active)"}, {"measurement": "GI50", "setting": "786-0", "result": "41.4 nM (active)"}, {"measurement": "GI50", "setting": "XF498", "result": "149 nM (active)"}, {"measurement": "GI50", "setting": "DLD-1", "result": "52.8 nM (active)"}, {"measurement": "GI50", "setting": "OVCAR-8", "result": "40.1 nM (active)"}, {"measurement": "GI50", "setting": "SF-295", "result": "60.4 nM (active)"}, {"measurement": "GI50", "setting": "MCF7", "result": "23.9 nM (active)"}, {"measurement": "GI50", "setting": "RXF 393", "result": "16.9 nM (active)"}, {"measurement": "GI50", "setting": "SNB-78", "result": "213 nM (active)"}, {"measurement": "GI50", "setting": "CAKI-1", "result": "34.3 nM (active)"}, {"measurement": "GI50", "setting": "A498", "result": "50.7 nM (active)"}, {"measurement": "GI50", "setting": "BT-549", "result": "39.5 nM (active)"}, {"measurement": "GI50", "setting": "NCI-H460", "result": "35.2 nM (active)"}, {"measurement": "GI50", "setting": "MDA-MB-231", "result": "39.4 nM (active)"}, {"measurement": "GI50", "setting": "UACC-257", "result": "55.2 nM (active)"}, {"measurement": "GI50", "setting": "KM-20L2", "result": "174 nM (active)"}, {"measurement": "GI50", "setting": "SF-539", "result": "34.3 nM (active)"}, {"measurement": "GI50", "setting": "HCC 2998", "result": "69.3 nM (active)"}, {"measurement": "GI50", "setting": "MDA-MB-435", "result": "33.2 nM (active)"}, {"measurement": "GI50", "setting": "HT-29", "result": "94.2 nM (active)"}, {"measurement": "GI50", "setting": "SK-MEL-28", "result": "45.5 nM (active)"}, {"measurement": "GI50", "setting": "K562", "result": "167 nM (active)"}, {"measurement": "GI50", "setting": "NCI-H23", "result": "36.5 nM (active)"}, {"measurement": "GI50", "setting": "COLO 205", "result": "34 nM (active)"}, {"measurement": "GI50", "setting": "OVCAR-4", "result": "64.3 nM (active)"}, {"measurement": "GI50", "setting": "SN12C", "result": "47.1 nM (active)"}, {"measurement": "GI50", "setting": "LOX IMVI", "result": "19.1 nM (active)"}, {"measurement": "GI50", "setting": "Malme-3M", "result": "124 nM (active)"}, {"measurement": "GI50", "setting": "MOLT-4", "result": "36.7 nM (active)"}, {"measurement": "GI50", "setting": "TK-10", "result": "53.8 nM (active)"}, {"measurement": "GI50", "setting": "M14", "result": "34 nM (active)"}, {"measurement": "GI50", "setting": "U-251", "result": "38.5 nM (active)"}, {"measurement": "GI50", "setting": "UO-31", "result": "26.6 nM (active)"}, {"measurement": "GI50", "setting": "NCI-H226", "result": "35.7 nM (active)"}, {"measurement": "GI50", "setting": "A549", "result": "54.3 nM (active)"}, {"measurement": "GI50", "setting": "RPMI-8226", "result": "32.6 nM (active)"}, {"measurement": "GI50", "setting": "SF-268", "result": "34.8 nM (active)"}, {"measurement": "GI50", "setting": "DMS-114", "result": "113 nM (active)"}, {"measurement": "GI50", "setting": "UACC-62", "result": "27.3 nM (active)"}, {"measurement": "GI50", "setting": "SK-MEL-5", "result": "24.8 nM (active)"}, {"measurement": "GI50", "setting": "HCT-15", "result": 39.9, "unit": "nM"}, {"measurement": "GI50", "setting": "LXFL 529", "result": "124 nM (active)"}, {"measurement": "GI50", "setting": "DMS-273", "result": "109 nM (active)"}, {"measurement": "GI50", "setting": "IGROV-1", "result": "30.4 nM (active)"}, {"measurement": "GI50", "setting": "HOP-18", "result": "56.2 nM (active)"}, {"measurement": "GI50", "setting": "SW-620", "result": "33.3 nM (active)"}, {"measurement": "GI50", "setting": "HCT-116", "result": "20 nM (active)"}, {"measurement": "GI50", "setting": "SK-OV-3", "result": "608 nM (active)"}, {"measurement": "GI50", "setting": "SK-MEL-2", "result": "36.6 nM (active)"}, {"measurement": "GI50", "setting": "HOP-62", "result": "32.4 nM (active)"}]}]}
